In general, Ki refers to the equilibrium dissociation constant of an inhibitor or competing ligand from its target. Read a low Ki as tighter binding. Usually EC50 stands for the concentration giving half of the maximal effect. A lower EC50 goes with greater potency. Broadly, the IC50 is the concentration at which inhibition is half-maximal.

One data set deals with T1, delta opioid receptor (Rattus norvegicus, UniProt P33533).
T1 construct: from tissue; host or cells: rat forebrain membrane (particulate) preparation
T1 sequence (P33533 whole entry): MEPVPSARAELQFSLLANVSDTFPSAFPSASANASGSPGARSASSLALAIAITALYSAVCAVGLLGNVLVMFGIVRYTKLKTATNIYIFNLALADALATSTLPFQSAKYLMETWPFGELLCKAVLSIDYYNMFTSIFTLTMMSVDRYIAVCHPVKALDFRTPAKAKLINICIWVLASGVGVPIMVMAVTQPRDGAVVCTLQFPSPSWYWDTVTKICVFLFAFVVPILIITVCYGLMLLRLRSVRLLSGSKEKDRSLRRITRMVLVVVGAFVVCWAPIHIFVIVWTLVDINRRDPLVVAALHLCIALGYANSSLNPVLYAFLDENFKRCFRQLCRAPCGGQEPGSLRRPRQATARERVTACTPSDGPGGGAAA
Briefly: Rat brain delta opioid receptor binding assay ([3H]DPDPE). The following applies: rat forebrain membranes, 25° C. As for the experimental part:
Rat Brain Mu and Delta Opioid Receptor Binding Assay
Male, Wistar rats (150-250 g, VAF, Charles River, Kingston, N.Y.) were killed by cervical dislocation and their brains removed and placed immediately in ice cold Tris HCl buffer (50 mM, pH 7.4). The forebrains were separated from the remainder of the brain by a coronal transection, beginning dorsally at the colliculi and passing ventrally through the midbrain-pontine junction. After dissection, the forebrains were homogenized in Tris buffer in a Teflon®-glass homogenizer. The homogenate was diluted to a concentration of 1 g of forebrain tissue per 100 mL Tris buffer and centrifuged at 39,000×G for 10 min. The pellet was resuspended in the same volume of Tris buffer with several brief pulses from a Polytron homogenizer. This particulate preparation was used for the opioid receptor binding assays. […] The tubes and filters were rinsed three times with 4 mL of 10 mM HEPES (pH 7.4) and the radioactivity associated with the filter circles determined using Formula 989 scintillation fluid (New England Nuclear, Boston, Mass.) in a scintillation counter.
The data were used to calculate a Ki value, using GraphPad Prism.

A further data set addresses T2, Human mu opioid (Homo sapiens, UniProt P35372).
T2 construct: host or cells: CHO cell membranes
The data set is described as follows: [35S]GTPγS binding assay in human mu opioid-CHO cell membranes. Type of data set: biochemical. As for the experimental part: [^35S]GTPγS Binding Assay in Human mu opioid-CHO Cell Membranes
Human mu-CHO cell membranes were purchased from Receptor Biology, Inc. (Baltimore, Md.). About 10 mg/ml of membrane protein was suspended in 10 mM TRIS-HCl, pH 7.2, 2 mM EDTA, 10% sucrose.
Membranes were maintained at 4-8° C. 1 ml of membranes was added into 15 ml cold assay buffer, containing 50 mM HEPES, pH 7.6, 5 mM MgCl2, 100 mM NaCl, 1 mM DTT and 1 mM EDTA. The membrane suspension was homogenized with a Polytron 2 times and centrifuged at 3000 rpm for 10 min. The supernatant was then centrifuged at 18,000 rpm for 20 min. The pellet was resuspended in 10 ml assay buffer with a Polytron.
The pellet membranes (20 μg/ml) were preincubated with Scintillation Proximity Assay beads (SPA, 10 mg/ml) at 25° C. for 45 min in the assay buffer. The SPA beads (5 mg/ml) coupled with membranes (10 μg/ml) were then incubated with 0.5 nM [^35S]GTPγS in the same HEPES buffer containing 50 μM GDP in total volume of 200 μl. A range of concentrations of receptor agonists were used to stimulate [^35S]GTPγS binding. The basal binding was tested in the absence of agonist and non-specific binding was tested in the presence of 10 μM unlabeled GTPγS. Radioactivity was quantified on a Packard TopCount.
Data were Calculated as Follows: % of basal=(stimulated−non-specific)*100/(basal−non specific) % Inhibition=(% Basal of 1 μM DAMGO−% Basal of compound)*100/(% Basal of 1 μM DAMGO−100)
EC50 values were calculated using the Prism program.
For orientation: GTPγS is a poorly hydrolysed GTP analogue; its binding reports G protein activation.

The subject of another data set is male Sprague-Dawley rats. Briefly: Rat CFA radiant heat model of inflammatory pain. Type of data set: in vivo. Particulars: dosed orally 24 h after intraplantar CFA. The method, then: Rat CFA Radiant Heat Model of Inflammatory Pain
Intraplantar injection of Complete Freund's Adjuvant (CFA) in rodents results in a strong, long-lasting inflammatory reaction, characterized by a chronic and pronounced hyperalgesia to both thermal and mechanical stimuli. These effects peak between 24-72 h following injection, and can last for several days to a few weeks. To assess the ability of compounds to reverse thermal hyperalgesia, male Sprague-Dawley rats (200-350 g) were given an intraplantar injection of CFA (1:1 CFA:saline, 100 μL) into their left hindpaw. Following a 24-h incubation period, response latencies on the Radiant Heat Paw Stimulator (RH) were obtained and compared to baseline (pre-CFA) latencies. The RH device automatically registered lifting of the paw from the surface of the glass. […] Following the post CFA latency assessment, rats were dosed orally (2.5 mL/kg) with test compound or vehicle (hydroxypropylmethylcellulose, HPMC). Percent reversal of hyperalgesia was calculated for each animal as (Treatment Response−postCFA Response)/(preCFA Response−postCFA Response)×100. Therefore, a return to normal pre-CFA thresholds was defined as 100% efficacy, whereas no change from post-CFA thresholds was 0% efficacy. Average % reversal of hyperalgesia was then calculated for each treatment group (n=6-8 rats/group). […]

Data set [1] in a line: Metabolic stability in mouse liver microsomes. Type of data set: in vitro ADME. Particulars: 10 min incubation. As for the experimental part: (§1) The metabolic stability of Compound 3 was investigated using several approaches. The compound was incubated with liver microsomes from mouse, rat, dog and human and the percent of compound remaining after ten min quantified. The compound was metabolically robust in all species tested.
(Microsomes from liver hold many membrane-bound enzymes, among them those of drug oxidation.)

Data set [2] can be described thus: Metabolic stability in dog liver microsomes. The following applies: 10 min incubation. Type of data set: in vitro ADME. As for the experimental part: as §1
Data set [3] has as its target recombinant human P450 3A4 (Homo sapiens, UniProt P08684). The data set is described as follows: Recombinant human P450 isoform inhibition, 3A4. Type of data set: in vitro ADME. As for the experimental part:
(§2) In a study using recombinant human P450 isoforms, the compound was only a weak inhibitor (IC50>10 μM) of all isoforms tested, 3A4, 2D6, 2C9, 2C19, and 1A2.

Data set [4] concerns the target recombinant human P450 2C9 (Homo sapiens, UniProt P11712). Briefly: Recombinant human P450 isoform inhibition, 2C9. Type of data set: in vitro ADME. The method, then:
as §2

Data set [5] in a line: Glucuronidation in human liver microsomes. The following applies: in vitro. It is filed as in vitro ADME.

Molecules are shown by their SMILES.

T2 sequence (P35372 whole entry): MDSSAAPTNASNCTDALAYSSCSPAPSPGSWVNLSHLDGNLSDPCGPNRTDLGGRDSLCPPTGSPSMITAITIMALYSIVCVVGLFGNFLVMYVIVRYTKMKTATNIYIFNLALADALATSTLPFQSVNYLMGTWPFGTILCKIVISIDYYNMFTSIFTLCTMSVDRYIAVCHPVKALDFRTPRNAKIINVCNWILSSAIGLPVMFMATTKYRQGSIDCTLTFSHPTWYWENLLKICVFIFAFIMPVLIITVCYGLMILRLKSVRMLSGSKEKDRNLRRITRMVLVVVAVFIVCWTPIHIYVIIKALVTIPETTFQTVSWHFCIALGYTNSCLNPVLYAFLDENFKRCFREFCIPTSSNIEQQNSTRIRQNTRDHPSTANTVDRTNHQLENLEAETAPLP
Chain of recombinant human P450 2C9 (P11712 whole entry, canonical isoform): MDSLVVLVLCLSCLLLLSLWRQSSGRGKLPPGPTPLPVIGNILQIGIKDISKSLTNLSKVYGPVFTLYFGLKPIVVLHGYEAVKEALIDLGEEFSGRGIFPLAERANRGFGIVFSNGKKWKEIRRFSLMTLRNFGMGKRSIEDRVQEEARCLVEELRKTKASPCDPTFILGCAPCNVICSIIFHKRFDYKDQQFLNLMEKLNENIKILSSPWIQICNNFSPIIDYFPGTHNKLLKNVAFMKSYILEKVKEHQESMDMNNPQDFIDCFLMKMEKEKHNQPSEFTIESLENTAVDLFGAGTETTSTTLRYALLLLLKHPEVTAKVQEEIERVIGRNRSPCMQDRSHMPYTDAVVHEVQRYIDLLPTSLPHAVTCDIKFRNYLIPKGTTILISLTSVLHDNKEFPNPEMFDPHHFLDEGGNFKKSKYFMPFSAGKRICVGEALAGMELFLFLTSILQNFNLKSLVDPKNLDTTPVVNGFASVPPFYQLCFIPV
Chain of recombinant human P450 3A4 (P08684 whole entry, canonical isoform): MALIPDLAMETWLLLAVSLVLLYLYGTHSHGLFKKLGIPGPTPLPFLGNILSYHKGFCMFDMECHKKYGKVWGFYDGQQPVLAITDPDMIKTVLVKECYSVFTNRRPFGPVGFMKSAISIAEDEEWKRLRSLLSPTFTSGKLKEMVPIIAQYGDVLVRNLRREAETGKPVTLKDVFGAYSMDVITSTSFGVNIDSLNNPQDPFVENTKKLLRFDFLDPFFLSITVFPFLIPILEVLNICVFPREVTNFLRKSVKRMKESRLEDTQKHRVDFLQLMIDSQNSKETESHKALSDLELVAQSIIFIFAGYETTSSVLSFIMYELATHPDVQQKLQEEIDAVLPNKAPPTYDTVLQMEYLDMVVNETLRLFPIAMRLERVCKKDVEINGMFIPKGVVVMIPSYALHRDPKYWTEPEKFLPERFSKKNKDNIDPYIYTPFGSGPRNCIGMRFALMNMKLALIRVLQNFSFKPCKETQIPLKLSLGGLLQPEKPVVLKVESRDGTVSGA

Regarding `CN(C)C[C@H]1CCCC[C@]1(O)c1cccc(C(N)=O)c1` (single isomer, unassigned) [Cpd 3], at delta opioid receptor, the Ki was 3.14 µM. Besides, at Human mu opioid, the response was half-maximal at 0.167 µM (EC50). For the same compound, at Human mu opioid, the “Mu opioid GTPγS relative efficacy” value turned out to be 75%. Besides, the “Antihyperalgesic effect (reversal of thermal hyperalgesia)” value with male Sprague-Dawley rats was “antihyperalgesic”. In addition, the “% remaining after 10 min” value in data set [1] turned out to be 88.2%; in data set [2], 92.6%. The IC50 in data set [3] and in data set [4] was > 10 µM each time. Besides, in data set [5], the Glucuronidation entry is reported as “no glucuronidation of the compound was detected”.

The record behind these values is US7745492B2, “Carboxamido opioid compounds” (Janssen Pharmaceutical, priority 2004, dated 2010).
